For orientation: EC50 means the concentration giving half of the maximal effect.

These results are taken from patent US20210244686A1, “Novel Systems And Methods For The Therapeutic Use of Cannabinoids or Cannabinoid Analogs to Increase The Lipid Order of Cholesterol Containing Cell Membranes” (The Regents of the University of Colorado a body corporate, priority 2018, published 2021).

In data set [1] the test system is SK-N-BE(2) cells. Description: cells. The class given is cell-based, human. As for the experimental part:
To efficiently design the multi-omics experiments, the present inventors exposed the neuroblastoma cell line SK-N-BE(2) to escalating doses of CBD at 24, 48, and 72 hours and determined the EC50 of toxicity of CBD to be greatest at 72 hours and at an approximate concentration of 20 μM (FIG. 1 B). To maximize the efficient use of the inventor's multi-omic resources, a large dose and time survey of the CBD response was conducted in a panel of transgenic SK-N-BE(2) and HaCaT keratinocyte cell lines, each expressing a genetically encoded förster resonance energy transfer (FRET) biosensor gene capable of reporting the activity of a cellular effector molecule/activity including, but not limited to: AMP kinase activity, Erk kinase activity, cytosolic ATP, glucose, lactate, pyruvate & glutamine, Ca^2+ in the ER & Cytosol, mTor kinase activity & TACE protease activity. […] The biosensor activity profiles as a function of CBD dose and time (FIGS. 9A-C) were analyzed for the EC50 of each biosensor activity at each time (FIG. 10). The result of these efforts outlined that the most robust dose of CBD for use in multi-omic experiments is 20 μM and that the kinetic profile of the CBD response begins in hours and persists for days.

For data set [2], the system named is SK-N-BE(2) cells. Description: Subcellular fractionation and LC-MS of CBD distribution. The class given is cell-based, human. The conditions noted are these: 24 hrs. Here is the method:
In a metabolomics survey of SK-N-BE(2) cells exposed to CBD, the present inventors were able to determine that CBD is concentrated in insoluble components […]. As a result, the inventors designed and executed a subcellular fractionation method to isolate nuclear membrane, plasma membrane, and ER membrane fractions.
Extraction of cholesterol, precursors, free fatty acids, cholesteryl esters, and phospho lipids were performed in the following manner. SK-N-BE(2) cells in 10 cm dishes were washed with 10 mL PBS twice and then cells were scraped and pelleted at 400 rcf for 2 minutes. […]
Analytes were resolved over an ACQUITY HSS T3 column (2.1×150 mm, 1.8 μm particle size (Waters, Mass., USA) using an aqueous phase (A) of 25% acetonitrile and 5 mM ammonium acetate and a mobile phase (B) of 90% isopropanol, 10% acetonitrile and 5 mM ammonium acetate. The column was equilibrated at 30% B, and upon injection of […] of extract, samples were eluted from the column using the solvent gradient: 0-9 min 30-100% B and 0.325 mL/min; hold at 100% B for 3 min at 0.3 mL/min, and then decrease to 30% over 0.5 min at 0.4 ml/min, followed by a re-equilibration hold at 30% B for 2.5 minutes at 0.4 ml/min. […] Samples were analyzed in randomized order with a technical mixture injected incrementally to qualify instrument performance. […]

In the next data set the test system is HEK293T cells. As to the kind of experiment: Live cell microscopy apoptosis assay (caspase 3/7 dye). It is filed as cell-based. The settings on record: DHA 75 μM with MBCD 300 μM or CBD 6.25 μM. As for the experimental part:
In order to gain further insight into the sensitivity of CBD treated cells to 25-hydroxy cholesterol, the present inventors repeated the apoptosis assay in SK-N-BE(2) and HEK293T cells with combinatorial 25-hydroxy cholesterol/CBD stimulation using sublethal doses of 25-hydroxy cholesterol (15 μg/ml) and CBD (20 μM) in the presence or absence of either the chemical inhibitor of cholesterol transport (U18666A, 10 μM) or cholesterol storage (VULM 1457, 5 μM).
FRAP experiments reveal that DHA and CBD have opposing effects on the lateral diffusion of fluorescently labelled cholesterol in synthetic membranes. Although this implies that CBD increases lipid order and that DHA decreases lipid order, it remains unclear how relevant these biophysical effects of CBD and DHA are to cellular physiology. As a result, the present inventors sought to determine whether CBD and DHA have opposing effects on cells. To this end, the present inventors repeated the live cell apoptosis assays in cells exposed to increasing doses of DHA to determine how DHA affects cell death.

Turning to `C=C(C)[C@@H]1CCC(C)=C[C@H]1c1c(O)cc(CCCCC)cc1O` [CBD, cannabidiol], the 50% effective concentration (EC50) in the data set with SK-N-BE(2) cells [1] (Homo sapiens, SKNBE2, SK-N-BE(2), greatest at 72 hours, approximate, read-out: EC50 of toxicity) is ~20 µM. Also, the “doses that can induce cell death” value in the data set on SK-N-BE(2) cells [1] (after 24 hours) was > 40 µM. Besides, in the data set on SK-N-BE(2) cells [2], the “CBD incorporated into ER and nuclear membranes” value is recorded as “detectable amount”. The “effect on DHA induced apoptosis” value in the data set on HEK293T cells is reported as “completely cancel the apoptotic effects”.
